Earlier results as cited in the PKSmart pharmacokinetics tables (Seal et al. 2025).

Experiment: Lombardo, Berellini, Obach 2018, Drug Metab Dispos 46:1466, doi 10.1124/dmd.118.082966
Conditions: human; for MRT / Vd / clearance / half-life: in vivo, iv; for fraction unbound: plasma

| Compound | MRT [h] | Vd [L/kg] | clearance [mL/min/kg] | half-life [h] | fraction unbound |
| --- | --- | --- | --- | --- | --- |
| CCOC(=O)C1=C(C)NC(C)=C(C(=O)OC)C1c1cccc([N+](=O)[O-])c1 (stereo not drawn) | 4.1 | 6.1 | 25 | 8.2 | 0.02 |
| C/C(=C\[C@H](C(C)C)N(C)C(=O)C(NC(=O)C1CCCCN1C(C)C)C(C)(C)C)C(=O)O (stereo partly drawn) | 21.5 | 1.26 | 0.97 | 17.5 | – |
| Cn1c(CNc2ccc(C(=N)N)cc2)nc2cc(C(=O)N(CCC(=O)O)c3ccccn3)ccc21 | 7.4 | 0.85 | 1.93 | 7.3 | 0.65 |
| CNC(=O)Oc1ccc2c(c1)[C@@]1(C)CCN(C)[C@@H]1N2C | 0.9 | 3.9 | 72 | 1 | 0.64 |
| CC#C[C@]1(O)CC[C@H]2C3=C(C4=C(CC3)CC(=O)CC4)C(c3ccc(N(C)C)cc3)C[C@@]21C (stereo partly drawn) | 15.7 | 0.45 | 0.5 | 16.6 | 0.02 |
| O=C(NCCO[N+](=O)[O-])c1cccnc1 | 2.7 | 1.4 | 8.9 | 3.6 | 0.76 |
| CC[C@@]1(O)C(=O)OCc2c1cc1n(c2=O)Cc2c-1nc1ccccc1c2CC[Si](C)(C)C | 13.3 | 3.26 | 4.2 | 13.2 | – |
| CN1C(=O)C(O)N=C(c2ccccc2Cl)c2cc(Cl)ccc21 (stereo not drawn) | 6.7 | 1.6 | 4 | 4.9 | – |
| CN[C@@H]1[C@@H](O)[C@@H](O[C@@H]2[C@@H](O)[C@H](O[C@H]3O[C@H]([C@@H](C)N)CC[C@H]3N)[C@@H](N)C[C@H]2N)OC[C@]1(C)O | – | – | – | – | 1 |
| CC(=O)C[C@H](c1ccc([N+](=O)[O-])cc1)c1c(O)c2ccccc2oc1=O | 3.12 | 0.24 | 1.28 | 7.22 | 0.02 |
| CC(=O)Nc1c(I)c(C(=O)O)c(I)c(N(C)C(C)=O)c1I | 1 | 0.17 | 2.7 | 1.3 | 1 |
| C[N+](C)(C)NCCC(=O)[O-] | 4.3 | 0.7 | 2.8 | 6.2 | – |
| CC(CN1CCN(CCOCCO)CC1)CN1c2ccccc2Sc2ccccc21 (stereo not drawn) | 4.16 | 4.06 | 16.3 | 3.11 | – |
| C=C1C=CC=C(C)[C@H](O)[C@@H](C)[C@@H](O)[C@@H](C)[C@H](OC(C)=O)[C@H](C)[C@@H](OC)/C=C/O[C@@]2(C)Oc3c(C)c(O)c4c(O)c(c5c(c4c3C2=O)NC2(CCN(CC(C)C)CC2)N5)NC1=O | 65 | 9.3 | 2.4 | 37 | – |
| O=C(O)c1cc(/N=N/c2ccc(S(=O)(=O)Nc3ccccn3)cc2)ccc1O | 6.8 | 0.11 | 0.26 | 7.6 | 0.004 |
| CC1(C)S[C@@H]2C(NC(=O)C(NC(=O)N3CCNC3=O)c3ccccc3)C(=O)N2C1C(=O)O (stereo partly drawn) | 1.7 | 0.26 | 2.5 | 1.2 | 0.65 |
| COP(=O)(c1cc(C)cc(/C=C/C#N)c1)c1c(C(N)=O)[nH]c2ccc(Cl)cc12 (stereo not drawn) | 5.5 | 0.56 | 1.71 | 4.4 | – |

| Compound | MRT [h] | Vd [L/kg] | clearance [mL/min/kg] | half-life [h] | fraction unbound |
| --- | --- | --- | --- | --- | --- |
| CC[C@H](C)[C@@H]([C@@H](CC(=O)N1CCC[C@H]1[C@H](OC)C(C)C(=O)NCCc1ccccc1)OC)N(C)C(=O)C(NC(=O)C(C(C)C)N(C)C)C(C)C (stereo partly drawn) | 4.6 | 0.42 | 1.6 | 5.67 | – |
| CC(=O)N(CC(O)CO)c1c(I)c(C(=O)NCC(O)CO)c(I)c(C(=O)NCC(O)CO)c1I (stereo not drawn) | 1.3 | 0.16 | 2 | 1.5 | 1 |
| CC(C)(C)C1(O)CC2OC(=O)CC23C(=O)OC2OC(=O)C(O)C231 (stereo not drawn) | 4 | 2.5 | 10 | 3.2 | – |
| NCCCCCC(=O)O | 2.6 | 0.39 | 2.5 | 4.9 | 0.92 |
| O=S(=O)(O)CCS | 0.52 | 0.65 | 20.5 | 0.36 | – |
| CCCc1c(O)n2c(N(C)C)nc3ccc(C)cc3[n+]2c1O | 14 | 0.12 | 0.14 | 17 | 0.004 |
| CC1(C)S[C@@H]2C(NC(=O)Cc3ccccc3)C(=O)N2C1C(=O)O (stereo partly drawn) | 0.58 | 0.24 | 6.9 | 0.7 | 0.4 |
| C[C@@H]1C=C2CC(=O)CCC2[C@H]2CC[C@]3(C)[C@@H](O)CC[C@H]3[C@H]12 (stereo partly drawn) | 0.67 | 0.8 | 20 | 0.65 | – |
| Cc1cc(F)ccc1[C@H]1CNCCN1C(=O)N(C)[C@H](C)c1cc(C(F)(F)F)cc(C(F)(F)F)c1 | 12.8 | 3.8 | 5.09 | 10 | – |
| CC#CCn1c(N2CCC[C@@H](N)C2)nc2c1c(=O)n(Cc1nc(C)c3ccccc3n1)c(=O)n2C | 140 | 16 | 1.9 | 129 | – |
| O=C(c1ccc(F)c(F)c1Nc1ccc(I)cc1F)N1CC(O)([C@@H]2CCCCN2)C1 | 96.6 | 15.4 | 2.8 | 68.8 | 0.05 |
| Cc1nc2c([nH]1)-c1ccccc1N(C(=O)c1ccc(NC(=O)c3ccccc3-c3ccccc3)cc1)CC2 | 4.2 | 0.76 | – | 6.7 | – |
| CC[C@@]1(O)C(=O)OCc2c1cc1n(c2=O)Cc2cc3cc(O)ccc3nc2-1 | 1.63 | 0.22 | 2.23 | 1.67 | – |
| CCN(CC)CCNC(=O)c1cc(S(C)(=O)=O)ccc1OC | 3.8 | 1.1 | 4.7 | 3.2 | – |
| CC[C@@]1(O)CN2CC[C@H]1C[C@@H]2[C@@H](O)c1ccnc2ccc(OC)cc12 | 9.4 | 6.8 | 12 | 6.7 | 0.47 |
| CNCC[C@@H](O)[C@@H]1C[C@H](SC2=C(C(=O)O)N3C(=O)C([C@@H](C)O)[C@H]3[C@H]2C)CN1 (stereo partly drawn) | 2.04 | 0.22 | 2.02 | 1.48 | – |
| C=C1C[C@@H]2CC[C@@]34C[C@H]5O[C@H]6[C@@H](O3)[C@H]3O[C@H](CC[C@@H]3O[C@H]6[C@H]5O4)CC(=O)O[C@@H]3[C@@H](OC)[C@@H](C[C@H](O)CN)O[C@H]3C[C@H]3O[C@@H](CC[C@@H]1O2)C[C@@H](C)C3=C | 32.5 | 1.46 | 0.75 | 37.8 | 0.43 |
